Laboratory results as given in patent US20250262185A1, “METHODS OF ADMINISTERING NEUROPSYCHIATRIC MEDICATIONS BASED ON RENAL IMPAIRMENT” (Sumitomo Pharma America, Inc., priority 2024, published 2025).
Like-named read-outs stand apart in the source and are kept apart here.

How the values were obtained:
[1] = Phase 1 pharmacokinetic study of SEP-856 in subjects with mild and moderate renal impairment compared to normal renal function (Example 3); details: for SEP-383103 AUC0-∞ Geo LS Mean / SEP-383103 Cmax Geo LS Mean: ANOVA; for SEP-383103 AUC0-∞ Geo LS Mean / SEP-383103 Cmax Geo LS Mean / MRAUC (metabolite-to-parent ratio based on AUC0-∞) / SEP-383103 plasma Cmax / SEP-383103 plasma Tmax: n=8; for MRAUC (metabolite-to-parent ratio based on AUC0-∞) / SEP-383103 plasma Cmax: GeoMean; for SEP-383103 plasma Cmax / SEP-383103 plasma Tmax: metabolite after single dose SEP-363856 25 mg; for SEP-383103 plasma Tmax: Median
Experimental: (§1) Renal function was assessed according to estimated glomerular filtration rate (eGFR) calculated using the Modification of Diet in Renal Disease (MDRD) equation at Screening and Check-in.
(§2) Healthy controls with normal renal function were enrolled in an effort to approximately match demographics (age, sex, weight, race) across the 2 groups. Potential subjects were screened to assess their eligibility to enter the study within 28 days (Day −28 to Day −3) prior to dose administration (Day 1).
(§3) Nine healthy controls, 9 subjects with mild renal impairment, and 6 subjects with moderate renal impairment were enrolled.
(§4) Male and female subjects aged between 18 and 70 years (inclusive) with a body mass index (BMI) between 18.0 and 40.0 kg/m^2 (inclusive) were eligible for study inclusion. Subjects were in good health except for specific inclusion criteria related to the status of renal impairment.
(§5) Subjects fasted for a minimum of 8 hours before dosing, and an additional 4 hours post-dose; intake of water was restricted except for the period from 1-hour pre-dose through 1-hour post-dose.
(§6) Final Results: Results were obtained by fitting an ANOVA model to the natural log-transformed PK parameter, with renal function group as fixed effect and subject as random effect. Results were back transformed to obtain the geometric LS mean ratio and 90% CI.

[2] = Phase 1 pharmacokinetic study of SEP-363856 in subjects with severe renal impairment and ESRD compared to normal renal function (Example 1)
Experimental: Renal function was assessed according to estimated glomerular filtration rate (eGFR) calculated using the Modification of Diet in Renal Disease (MDRD) equation at Screening and Check-in. Estimates calculated using the Cockcroft-Gault equation were also reported. Subjects in Group 1 had severe renal impairment not requiring dialysis and subjects in Group 2 had ESRD requiring dialysis.
Healthy matched controls with normal renal function were enrolled to match (age, sex, weight, race) across the 2 groups. A healthy control could be matched to more than 1 renally impaired subject. Potential subjects were screened to assess their eligibility to enter the study within 28 days (Day −28 to Day −3) prior to dose administration (Day 1). Each subject completed 1 or 2 treatment periods (1 treatment period for Group 1 and normal healthy subjects with normal renal function and 2 treatment periods for Group 2).
Subjects in Group 1 and the normal healthy subjects were admitted into the Clinical Research Unit (CRU) on Day −2 and confined to the CRU until discharge on Day 5. […] No food was allowed for 4 hours post-dose. Subjects in Group 1 returned to the CRU for a Follow-up visit approximately 7 days after discharge (i.e., Day 12±2).
Subjects in Group 2 followed their established dialysis schedule. They were admitted into the CRU on Day −2 and confined to the CRU until discharge on Day 5. […]

[3] = in vivo
Source text: Any of the embodiments of this disclosure can be practiced to prevent accumulation of SEP-103 in the body exceeding levels studied and deemed safe in preclinical toxicology studies. […].

hERG = hERG (Homo sapiens, UniProt Q12809); experiment: toxicological studies, hERG inhibition; format: biochemical; details: concentrations up to 30 μM
clinical = details: both, human, plasma, oral, 25 mg
Experimental: as §1, §2, §3, §4, §5, §6

[4] = final results, Moderate vs Healthy

hERG, sequence (Q12809 whole entry): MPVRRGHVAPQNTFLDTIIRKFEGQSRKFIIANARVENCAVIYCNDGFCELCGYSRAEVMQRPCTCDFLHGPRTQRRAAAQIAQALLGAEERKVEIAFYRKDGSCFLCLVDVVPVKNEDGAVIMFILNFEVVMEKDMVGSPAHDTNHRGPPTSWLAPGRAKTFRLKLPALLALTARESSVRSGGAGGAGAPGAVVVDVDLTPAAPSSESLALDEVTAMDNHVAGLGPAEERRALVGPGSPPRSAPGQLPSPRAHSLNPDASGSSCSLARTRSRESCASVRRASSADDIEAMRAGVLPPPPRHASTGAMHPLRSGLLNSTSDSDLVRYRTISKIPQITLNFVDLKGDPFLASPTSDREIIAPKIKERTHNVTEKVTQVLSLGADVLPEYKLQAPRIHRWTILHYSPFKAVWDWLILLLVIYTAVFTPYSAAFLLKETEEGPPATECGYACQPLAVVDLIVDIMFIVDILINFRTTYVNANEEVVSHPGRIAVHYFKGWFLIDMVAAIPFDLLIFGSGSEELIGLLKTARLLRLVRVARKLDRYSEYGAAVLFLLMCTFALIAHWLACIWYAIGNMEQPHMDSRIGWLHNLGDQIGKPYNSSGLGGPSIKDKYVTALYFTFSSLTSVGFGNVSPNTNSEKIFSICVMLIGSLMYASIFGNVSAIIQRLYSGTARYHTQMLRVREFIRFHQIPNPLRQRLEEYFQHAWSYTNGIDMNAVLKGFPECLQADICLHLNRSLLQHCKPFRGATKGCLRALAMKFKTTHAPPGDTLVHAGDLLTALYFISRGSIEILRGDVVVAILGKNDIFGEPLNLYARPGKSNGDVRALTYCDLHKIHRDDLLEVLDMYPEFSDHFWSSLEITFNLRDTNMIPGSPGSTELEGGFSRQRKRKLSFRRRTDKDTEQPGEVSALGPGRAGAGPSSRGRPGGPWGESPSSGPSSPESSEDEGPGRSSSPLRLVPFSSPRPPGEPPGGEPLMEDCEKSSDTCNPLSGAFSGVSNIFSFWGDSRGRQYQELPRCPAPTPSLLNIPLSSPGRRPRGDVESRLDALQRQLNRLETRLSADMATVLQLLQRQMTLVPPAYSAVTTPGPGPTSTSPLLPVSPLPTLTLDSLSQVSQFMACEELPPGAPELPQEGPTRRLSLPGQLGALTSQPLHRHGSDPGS

## O=C(O)[C@@H]1OCCc2ccsc21 [SEP-383103]
[1]; final results
  correlation between exposure (AUC0-∞ and Cmax) and degree of renal impairment: significant correlation
[1]; final results, Mild
  SEP-383103 AUC0-∞ Geo LS Mean: 769.5 ng·h/mL
  SEP-383103 Cmax Geo LS Mean: 54.98 ng/mL
  MRAUC (metabolite-to-parent ratio based on AUC0-∞): 0.9643
  SEP-383103 plasma Cmax: 54.98 ng/mL
  SEP-383103 plasma Tmax: 5.000 h
[1]; final results, Moderate
  SEP-383103 AUC0-∞ Geo LS Mean: 1043 ng·h/mL
  SEP-383103 Cmax Geo LS Mean: 56.30 ng/mL
  MRAUC (metabolite-to-parent ratio based on AUC0-∞): 1.276
  SEP-383103 plasma Cmax: 56.30 ng/mL
  SEP-383103 plasma Tmax: 6.000 h
[1]; final results, Healthy
  MRAUC (metabolite-to-parent ratio based on AUC0-∞): 0.7348
[1]; final results, Mild vs Healthy
  SEP-383103 AUC0-∞ Geo LS Mean Ratio: 125.47%
  SEP-383103 Cmax Geo LS Mean Ratio: 128.43%
[1]; [4]
  SEP-383103 AUC0-∞ Geo LS Mean Ratio: 170.12%
  SEP-383103 Cmax Geo LS Mean Ratio: 131.50%
[1]; mild renal impairment vs healthy
  metabolite Tmax change: no change
[2]; human, in vivo
  correlation between exposure (AUC0-∞ and AUC0-last) and renal function: strong correlation
[2]; severe renal impairment
  metabolite median Tmax versus healthy subjects: delayed substantially
[3]; dog
  blood concentration studied and deemed to be safe: 1100 ng/mL
  exposure level studied and deemed to be safe: 12200 ng·h/mL
[3]; rat
  blood concentration studied and deemed to be safe: 700 ng/mL
  exposure level studied and deemed to be safe: 11700 ng·h/mL
hERG
  hERG inhibition: no hERG inhibition
clinical
  AUC(0-inf): 613 ng·h/mL
